Converted amounts (≈) assume the structure as drawn. “Also recorded” adds a separate entry of the source. Read-outs that look alike come from different tables or passages of the source.
Experiments:
CnAcs1 [1] = target: T1, CnAcs1 (Cryptococcus neoformans, UniProt J9VFT1); test: Acs coupled kinetic pyrophosphate; assay type: biochemical
T1 sequence (J9VFT1 1-680): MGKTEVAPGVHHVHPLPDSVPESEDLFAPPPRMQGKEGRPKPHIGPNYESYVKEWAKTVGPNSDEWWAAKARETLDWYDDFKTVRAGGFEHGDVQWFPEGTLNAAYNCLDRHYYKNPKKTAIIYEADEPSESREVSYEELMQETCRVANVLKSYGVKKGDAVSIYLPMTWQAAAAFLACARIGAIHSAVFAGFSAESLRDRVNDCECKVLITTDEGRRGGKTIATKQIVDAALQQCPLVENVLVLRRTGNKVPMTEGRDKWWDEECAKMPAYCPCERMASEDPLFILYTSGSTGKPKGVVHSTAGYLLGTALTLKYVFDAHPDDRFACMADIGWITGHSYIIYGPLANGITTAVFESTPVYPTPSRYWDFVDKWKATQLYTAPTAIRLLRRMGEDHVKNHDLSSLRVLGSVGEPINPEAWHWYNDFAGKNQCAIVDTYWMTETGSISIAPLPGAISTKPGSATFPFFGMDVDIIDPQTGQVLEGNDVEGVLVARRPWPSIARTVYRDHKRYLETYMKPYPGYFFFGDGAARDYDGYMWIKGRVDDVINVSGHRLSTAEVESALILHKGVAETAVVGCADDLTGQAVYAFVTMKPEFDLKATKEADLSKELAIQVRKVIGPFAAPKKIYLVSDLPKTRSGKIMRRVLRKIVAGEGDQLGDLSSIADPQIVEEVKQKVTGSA

[2] = system: C. neoformans reference strain H99; test: MIC, modified CLSI micro-broth dilution, H99; assay type: cell-based, Cryptococcus neoformans
PfAcAS = details: cited from earlier work
Ca^CnAcs2 = target: T2, Ca^CnAcs2 (Candida albicans, UniProt Q8NJN3, A319M/F357Y/G320A/Q430M/V371T); test: Acs assay, Ca^CnAcs2 mutant enzyme; details: for IC50: read-out: IC50 Ca^CnAcs2
T2 sequence (Q8NJN3 with tags, fused parts or gaps A319M/G320A/F357Y/V371T/V388A/Q430M): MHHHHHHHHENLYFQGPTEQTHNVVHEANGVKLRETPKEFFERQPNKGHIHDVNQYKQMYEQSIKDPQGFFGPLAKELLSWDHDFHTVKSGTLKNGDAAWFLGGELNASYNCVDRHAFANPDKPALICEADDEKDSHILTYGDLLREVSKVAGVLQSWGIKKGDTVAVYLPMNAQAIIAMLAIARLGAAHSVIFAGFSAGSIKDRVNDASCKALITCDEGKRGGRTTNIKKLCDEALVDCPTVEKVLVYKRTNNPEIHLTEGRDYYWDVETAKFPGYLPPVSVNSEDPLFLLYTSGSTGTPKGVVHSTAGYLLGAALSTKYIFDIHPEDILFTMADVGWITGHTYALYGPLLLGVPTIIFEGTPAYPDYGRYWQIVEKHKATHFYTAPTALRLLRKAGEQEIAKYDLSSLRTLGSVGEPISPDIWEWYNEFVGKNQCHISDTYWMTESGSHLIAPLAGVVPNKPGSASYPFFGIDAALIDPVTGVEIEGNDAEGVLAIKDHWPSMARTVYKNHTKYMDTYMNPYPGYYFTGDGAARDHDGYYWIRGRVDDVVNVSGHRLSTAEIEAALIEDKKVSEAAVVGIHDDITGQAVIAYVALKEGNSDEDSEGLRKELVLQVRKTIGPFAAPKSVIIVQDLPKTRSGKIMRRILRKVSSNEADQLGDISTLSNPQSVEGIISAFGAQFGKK

CaAcs2 [3] = target: T3, CaAcs2 (Candida albicans, UniProt Q8NJN3); test: Acs coupled kinetic assay, CaAcs2; assay type: biochemical
T3 sequence (Q8NJN3 1-671): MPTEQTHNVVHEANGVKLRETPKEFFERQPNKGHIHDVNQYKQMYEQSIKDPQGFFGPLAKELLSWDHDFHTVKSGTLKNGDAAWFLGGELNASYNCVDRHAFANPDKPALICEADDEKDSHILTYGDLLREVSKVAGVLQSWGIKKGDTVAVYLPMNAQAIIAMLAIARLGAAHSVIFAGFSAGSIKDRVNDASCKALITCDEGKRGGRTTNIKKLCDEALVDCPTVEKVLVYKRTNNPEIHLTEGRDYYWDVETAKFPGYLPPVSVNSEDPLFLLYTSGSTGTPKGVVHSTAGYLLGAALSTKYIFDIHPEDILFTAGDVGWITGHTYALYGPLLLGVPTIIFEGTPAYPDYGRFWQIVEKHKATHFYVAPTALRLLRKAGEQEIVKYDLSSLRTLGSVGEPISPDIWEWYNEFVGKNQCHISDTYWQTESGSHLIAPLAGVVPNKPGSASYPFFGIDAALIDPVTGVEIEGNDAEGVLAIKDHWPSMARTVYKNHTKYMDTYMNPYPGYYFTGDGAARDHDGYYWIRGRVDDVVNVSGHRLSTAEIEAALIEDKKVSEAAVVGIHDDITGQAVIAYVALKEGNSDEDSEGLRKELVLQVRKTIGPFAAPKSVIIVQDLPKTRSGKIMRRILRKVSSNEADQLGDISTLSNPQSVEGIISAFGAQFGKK

human ACSS2 = human ACSS2 (Homo sapiens, UniProt Q9NR19); test: Acs coupled kinetic assay, human ACSS2; assay type: biochemical
CnAcs1 [4] = target: T1, CnAcs1; details: cited from earlier work; for IC50: read-out: IC50 CnAcs1, alkyl-AMP esters
CaAcs2 [5] = target: T3, CaAcs2; details: read-out: IC50 CaAcs2; cited from earlier work

Chain of human ACSS2 (Q9NR19 whole entry): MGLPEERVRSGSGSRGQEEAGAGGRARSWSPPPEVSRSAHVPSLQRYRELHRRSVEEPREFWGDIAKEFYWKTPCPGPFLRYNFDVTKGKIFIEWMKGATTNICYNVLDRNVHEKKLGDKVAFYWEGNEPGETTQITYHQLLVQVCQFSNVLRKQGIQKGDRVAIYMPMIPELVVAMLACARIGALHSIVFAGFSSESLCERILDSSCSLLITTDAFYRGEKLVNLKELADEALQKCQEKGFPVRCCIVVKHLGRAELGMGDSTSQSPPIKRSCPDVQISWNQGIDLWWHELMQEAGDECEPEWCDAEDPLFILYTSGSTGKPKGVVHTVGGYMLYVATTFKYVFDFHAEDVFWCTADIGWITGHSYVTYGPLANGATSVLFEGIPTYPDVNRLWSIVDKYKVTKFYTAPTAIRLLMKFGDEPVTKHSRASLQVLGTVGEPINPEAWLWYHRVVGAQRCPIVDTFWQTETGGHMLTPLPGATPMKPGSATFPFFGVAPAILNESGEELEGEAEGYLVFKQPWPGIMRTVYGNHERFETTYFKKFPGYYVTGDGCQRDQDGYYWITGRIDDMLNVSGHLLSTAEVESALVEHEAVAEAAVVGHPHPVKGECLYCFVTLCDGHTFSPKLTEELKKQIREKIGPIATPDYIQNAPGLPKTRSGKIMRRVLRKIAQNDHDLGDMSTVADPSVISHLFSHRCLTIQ

In the case of `CCN(CC)S(=O)(=O)c1ccc(Cl)c(C(=O)Nc2ccc3nc(C)sc3c2)c1` [MMV019721], the “inhibition of CnAcs1 (in words)” value (CnAcs1 [1]) is listed as “did not inhibit CnAcs1 below its solubility limit; also recorded: does not inhibit CnAcs1 at the maximum soluble concentration; also recorded: does not significantly inhibit CnAcs1”, the “antifungal activity against C. neoformans (in words)” value [2] is listed as “no activity” and the “kinetic mechanism of PfAcAS inhibition” value (PfAcAS) is listed as “competitive with ATP and uncompetitive with CoA”.

In the case of `O=C(NNC(=O)c1csnn1)c1ccc(Cl)cc1` [MMV084978], the “maximum inhibition of Ca^CnAcs2” value (Ca^CnAcs2) is reported as 93%, the IC50 (Ca^CnAcs2) is reported as 88 ± 21 µM and the “fold higher IC50 toward CnAcs1 than PfAcAS” value (CnAcs1 [1]) is reported as ~ 8 fold. For the same compound, the “kinetic mechanism of CnAcs1 inhibition” value (CnAcs1 [1]) was “uncompetitive”, the “kinetic mechanism of CnAcs1 inhibition” value (CnAcs1 [1]; listed as MMV089478) was “uncompetitive inhibitor of CnAcs1” and the “fold higher IC50 toward CnAcs1 than PfAcAS” value (CnAcs1 [1]; listed as MMV0894978) was 8 fold. For the same compound, the Ki (CnAcs1 [1]; read-out: Ki with CnAcs1, uncompetitive model, CoA varied) was 4.1 µM, the “MIC toward C. neoformans” value ([2]; medium not stated) was 64 µg/mL (≈ 226 µM) and the “inhibition of CaAcs2 (in words)” value (CaAcs2 [3]) was “did not inhibit CaAcs2”. For the same compound, the “fold higher IC50 toward ACSS2 than PfAcAS” value (human ACSS2) was 50 fold, the “kinetic mechanism of PfAcAS inhibition” value (PfAcAS) was “uncompetitive inhibitor with respect to ATP and CoA” and the IC50 (PfAcAS; read-out: IC50 PfAcAS) was 0.37 µM.

For `COC(=O)c1cccc(N2N=C(C)C(C(=O)Nc3cccc(C(C)(F)F)c3)C2=O)c1` (stereo not drawn) [MTB-9655], the “inhibition of CnAcs1 (in words)” value (CnAcs1 [1]) was “no activity against CnAcs1”.

For `CCCCOP(=O)(O)OCC1OC(n2cnc3c(N)ncnc32)C(O)C1O` (stereo not drawn) [butyl], the “decrease in potency relative to ethyl-AMP” value (CnAcs1 [4]) is given as > 50 fold.

For `CN(Cc1cccc(-c2ccc(F)cc2)c1)Cc1cc(C2CC2)on1` [compound 3], the “inhibition of CnAcs1 (in words)” value (CnAcs1 [1]) was “no activity against CnAcs1”.

For `CC(C)c1cc(CN(C)C(=O)c2cccc(-c3ccc(F)cc3)c2)no1` [compound 5], the “inhibition of CnAcs1 (in words)” value (CnAcs1 [1]) was “eliminated inhibition entirely”.

With `Cc1cc(CN(C)C(=O)c2cccc(-c3ccc(F)cc3)c2)no1` [compound 6] the “inhibition of CnAcs1 (in words)” value (CnAcs1 [1]) was “much less potent than 2” and the inhibition at 100 µM (CnAcs1 [1]; read-out: inhibition of CnAcs1) was 50%.

With `CN(Cc1ccon1)C(=O)c1cccc(-c2ccc(F)cc2)c1` [compound 7] the “inhibition of CnAcs1 (in words)” value (CnAcs1 [1]) was “completely inactive”.

In the case of `O=C(NCc1cc(C2CC2)on1)c1cccc(-c2ccc3c(c2)CCO3)c1` [compound 8], the “inhibition of CnAcs1 (in words)” value (CnAcs1 [1]) is reported as “no activity against CnAcs1”.

For `COc1ccc(-c2cccc(C(=O)N(C)Cc3cc(C4CC4)on3)c2)cc1` [compound 9], the “inhibition of CnAcs1 (in words)” value (CnAcs1 [1]) was “activity that was similar to 1 and more potent than 2”.

For `COc1ccccc1-c1cccc(C(=O)N(C)Cc2cc(C3CC3)on2)c1` [compound 10], the “inhibition of CnAcs1 (in words)” value (CnAcs1 [1]) was “eliminated activity”.

In the case of `CN(Cc1cc(C2CC2)on1)C(=O)c1cccc(-c2ccccc2)c1` [compound 12], the “inhibition of CnAcs1 (in words)” value (CnAcs1 [1]) is reported as “no activity”.

In the case of `Nc1ncnc2c1ncn2[C@@H]1O[C@H](COP(=O)(O)OC2CC2)[C@@H](O)[C@H]1O` [cyclopropyl-AMP ester], the IC50 (CnAcs1 [4]) is given as 9 µM.

In the case of `CCOP(=O)(O)OC[C@H]1O[C@@H](n2cnc3c(N)ncnc32)[C@H](O)[C@@H]1O` [ethyl-AMP], the IC50 (Ca^CnAcs2) is given as 19 ± 7 µM, the IC50 (CnAcs1 [4]) is given as 8 µM and the IC50 (CaAcs2 [5]) is given as 11 ± 5 µM.

For `CC(C)OP(=O)(O)OCC1OC(n2cnc3c(N)ncnc32)C(O)C1O` (stereo not drawn) [isopropyl-AMP ester], the “inhibition of CnAcs1 (in words)” value (CnAcs1 [1]) was “equivalent to that of the cyclopropyl-AMP ester”.

With `COP(=O)(O)OCC1OC(n2cnc3c(N)ncnc32)C(O)C1O` (stereo not drawn) [methyl-AMP ester] the “inhibition of CnAcs1 (in words)” value (CnAcs1 [1]) was “completely inactive”.

For `CCCOP(=O)(O)OC[C@H]1O[C@@H](n2cnc3c(N)ncnc32)[C@H](O)[C@@H]1O` [propyl], the “decrease in potency relative to ethyl-AMP” value (CnAcs1 [4]) is listed as 3 fold.

Reference: PMC12521546 (Nature Communications, 2025)
